Measured values as given in patent US20050208496A1, “Methods of testing for bronchial asthma or chronic obstructive pulmonary disease” (Genox Research, Inc., priority 2002, published 2005).

System: respiratory epithelial cells

IL-13: human IL-13 (Peprotech, Inc.) added to the medium at 50 ng/mL to stimulate respiratory epithelial cells
TGM2 (38404_at) expression fold change upon IL-13 stimulation (lot 1, Day 7, AI method): 2.8 fold | TSPAN-3 (38612_at) expression, fold change upon IL-13 stimulation (lot 1, Day 7, AI method): 2.7 fold | TXNRD1 (39425_at) expression fold change upon IL-13 stimulation (lot 1, Day 7, AI method): 2.5 fold | UBE2L6 (40505_at) expression fold change upon IL-13 stimulation (lot 1, Day 7, AI method): 5.1 fold | UFD1L (811_at) expression, fold change upon IL-13 stimulation (lot 1, Day 7, AI method): 5.1 fold | W06879 (57696_at) expression fold change (lot 1, Day 7, AI method): 2.1 fold | ZNF263 (33288_i_at) expression fold change (lot 1, Day 7, AI method): 2.6 fold | diubiquitin (39959_at) expression, fold change upon IL-13 stimulation (lot 1, Day 7, AI method): 4.3 fold | AA053401 (56234_r_at) expression change (lot 1, Day 7, IMM): −5.7 | AA059458 (65626_at) expression change (lot 1, Day 7, IMM): −3.1 | AA456099 (59567_at) expression change (lot 1, Day 7, IMM): −2.3 | AF052107 38262_at expression change (lot 1, Day 7, IMM): −4.5 | AI050855 (64285_at) expression change (lot 1, Day 7, IMM): −3.7 | AI432375 (49819_at) expression change (lot 1, Day 7, IMM): −6.3 | AI770116 (70124_at) expression change (lot 1, Day 7, IMM): −2.1 | AI798733 (64163_at) expression change (lot 1, Day 7, IMM): −2.3 | AI829641 (84270_at) expression change (lot 1, Day 7, IMM): 11.7 | AI948584 48086_at expression change (lot 1, Day 7, IMM): −6.2 | AQP5 32909_at expression change (lot 1, Day 7, IMM): −2.5 | ARHGEF4 36524_at expression change (lot 1, Day 7, IMM): −2.2 | BARX2 35425_at expression change (lot 1, Day 7, IMM): −2.7 | CBLB 514_at expression change (lot 1, Day 7, IMM): −2.4 | CBLB 35632_at expression change (lot 1, Day 7, IMM): −2 | CRABP-II 1057_at expression change (lot 1, Day 7, IMM): −2.7 | DKFZp434K1210 44682_at expression change (lot 1, Day 7, IMM): −2.1 | DSC3 (79615_at) expression change (lot 1, Day 7, IMM): −4 | DSC3a, b 47119_at expression change (lot 1, Day 7, IMM): −3.4 | DSC3a, b 79615_at expression change (lot 1, Day 7, IMM): −4 | EIF4EBP1 (54152_at) expression change (lot 1, Day 7, IMM): −7.3 | FLJ10718 52072_at expression change (lot 1, Day 7, IMM): −8 | FLJ20373 54030_at expression change (lot 1, Day 7, IMM): −2.1 | FLJ23516 47534_at expression change (lot 1, Day 7, IMM): −5.4 | GJA1 32531_at expression change (lot 1, Day 7, IMM): −5.5 | HEY1 44783_s_at expression change (lot 1, Day 7, IMM): −3.4 | HIN-1 (46200_at) expression change (lot 1, Day 7, IMM): −4 | ID1 36619_r_at expression change (lot 1, Day 7, IMM): −3.9 | IL20RA 42969_at expression change (lot 1, Day 7, IMM): −2.9 | IVL 36355_at expression change (lot 1, Day 7, IMM): −4.5 | K1IAA1102 (64345_s_at) expression change (lot 1, Day 7, IMM): −5.6 | KCNMA1 (53796_at) expression change (lot 1, Day 7, IMM): −3 | KIAA0878 (48793_at) expression change (lot 1, Day 7, IMM): −2.4 | KLF7 34216_at expression change (lot 1, Day 7, IMM): −6.3 | KLF7 (42769_at) expression change (lot 1, Day 7, IMM): −3.7 | KRT6B (62998_at) expression change (lot 1, Day 7, IMM): −2.5 | KRT15 37582_at expression change (lot 1, Day 7, IMM): −2 | LOC51297 (49616_at) expression change (lot 1, Day 7, IMM): −3.9 | LOC51297 (55440_at) expression change (lot 1, Day 7, IMM): −3.7 | LOC51297 (55442_g_at) expression change (lot 1, Day 7, IMM): −12.8 | LOC129642 (42065_at) expression change (lot 1, Day 7, IMM): −4.3 | LOC129642 (58288_at) expression change (lot 1, Day 7, IMM): −3.9 | MGC14128 55924_at expression change (lot 1, Day 7, IMM): −2.7 | MGC14128 (51669_r_at) expression change (lot 1, Day 7, IMM): −2.1 | MGC16207 (65876_at) expression change (lot 1, Day 7, IMM): −2.3 | N71183 52473_at expression change (lot 1, Day 7, IMM): −2.1 | PR01489 57777_at expression change (lot 1, Day 7, IMM): −10.9 | RAC2 32737_at expression change (lot 1, Day 7, IMM): −3.2 | SEMA4B (46709_at) expression change (lot 1, Day 7, IMM): −2.2 | SERPINA3 (75248_at) expression change (lot 1, Day 7, IMM): −16.3 | SPRR1B 37160_at expression change (lot 1, Day 7, IMM): −2.4 | T52027 (63150_at) expression change (lot 1, Day 7, IMM): 2.5 | TCF8 33439_at expression change (lot 1, Day 7, IMM): −2.4 | TGFBI (68339_at) expression change (lot 1, Day 7, IMM): −3.2 | TNNT1 36113_s_at expression change (lot 1, Day 7, IMM): −4.9 | TNRC3 41246_at expression change (lot 1, Day 7, IMM): −2.4 | TPM1 36790_at expression change (lot 1, Day 7, IMM): −5.5 | TPM1 36791_g_at expression change (lot 1, Day 7, IMM): −7.5 | TPM1 36792_at expression change (lot 1, Day 7, IMM): −5.7 | UGB 39220_at expression change (lot 1, Day 7, IMM): −8.2 | VIM 34091_s_at expression change (lot 1, Day 7, IMM): −6.6 | W55956 46700_at expression change (lot 1, Day 7, IMM): −2.4 | W72331 49486 at expression change (lot 1, Day 7, IMM): −4.8 | ADAM8 (40712_at) expression, fold change upon IL-13 stimulation (lot 1, Day 7, IMM method): 2.8 fold | ADAM28 (35479_at) expression, fold change upon IL-13 stimulation (lot 1, Day 7, IMM method): 6.4 fold | AI659927 (54033_at) expression fold change (lot 1, Day 7, IMM method): 11 fold | AI718385 (53061_at) expression fold change (lot 1, Day 7, IMM method): 3.2 fold | AI809925 (53010_at) expression fold change (lot 1, Day 7, IMM method): 2.8 fold | AI989346 (52327_s_at) expression fold change (lot 1, Day 7, IMM method): 2.1 fold | AKAP2 (35985_at) expression, fold change upon IL-13 stimulation (lot 1, Day 7, IMM method): 2.2 fold | ALOX15 (34636_at) expression, fold change upon IL-13 stimulation (lot 1, Day 7, IMM method): 118.8 fold | AW019985 (48826_s_at) expression fold change (lot 1, Day 7, IMM method): 10.8 fold | BRCA1 (626_s_at) expression fold change (lot 1, Day 7, IMM method): 2.4 fold | BST2 (39061_at) expression, fold change upon IL-13 stimulation (lot 1, Day 7, IMM method): 5.4 fold | C21orf11 (58957_at) expression fold change (lot 1, Day 7, IMM method): 6 fold | CCND3 (1794_at) expression fold change upon IL-13 stimulation (lot 1, Day 7, IMM method): 2.3 fold | CDH6 (1620_at) expression fold change upon IL-13 stimulation (lot 1, Day 7, IMM method): 4.2 fold | CDH6 (57421_at) expression fold change (lot 1, Day 7, IMM method): 4.5 fold | CDH26 (46916_at) expression fold change (lot 1, Day 7, IMM method): 9.3 fold | CH25H (32363_at) expression, fold change upon IL-13 stimulation (lot 1, Day 7, IMM method): 11.4 fold | CLDN4 (35276_at) expression, fold change upon IL-13 stimulation (lot 1, Day 7, IMM method): 2.1 fold | CLDN5 (38995_at) expression, fold change upon IL-13 stimulation (lot 1, Day 7, IMM method): 3.9 fold | CTSC (133_at) expression, fold change upon IL-13 stimulation (lot 1, Day 7, IMM method): 5.6 fold | CXCL16 (44095_at) expression fold change (lot 1, Day 7, IMM method): 2.6 fold | DD96 (31610_at) expression, fold change upon IL-13 stimulation (lot 1, Day 7, IMM method): 9.5 fold | DKFZP564O0823 (41402_at) expression, fold change upon IL-13 stimulation (lot 1, Day 7, IMM method): 9.6 fold | DKFZP566J091 (57197_at) expression fold change (lot 1, Day 7, IMM method): 4.2 fold | DKFZp564N1116 (37784_at) expression, fold change upon IL-13 stimulation (lot 1, Day 7, IMM method): 6 fold | DPP4 (34823_at) expression fold change upon IL-13 stimulation (lot 1, Day 7, IMM method): 3.9 fold | DPYD (38220_at) expression fold change upon IL-13 stimulation (lot 1, Day 7, IMM method): 6.9 fold | EMILIN-2 (51628_at) expression fold change (lot 1, Day 7, IMM method): 5 fold | FETUB (32620_at) expression fold change (lot 1, Day 7, IMM method): 7.4 fold | FETUB (33101_g_at) expression fold change (lot 1, Day 7, IMM method): 7.7 fold | FLJ10261 (43366_at) expression fold change (lot 1, Day 7, IMM method): 8.4 fold | FLJ22693 (53777_at) expression fold change (lot 1, Day 7, IMM method): 2.2 fold | GADD45G (39154_at) expression fold change upon IL-13 stimulation (lot 1, Day 7, IMM method): 3.1 fold | HAS3 (54604_at) expression fold change (lot 1, Day 7, IMM method): 2.2 fold | HLA-F (37420_i_at) expression, fold change upon IL-13 stimulation (lot 1, Day 7, IMM method): 2.4 fold
